According to patent US20090297534A1, “Catalytic Immunoglobulins BBK32 and Uses Therefor” (priority 2005, published 2009):
Where no end group is shown, it is not given here.

Columns and labels:
[1] = tested on: IgA catalyzed gp120 cleavage (salivary IgA, serum IgA); test: Inhibition of IgA catalyzed gp120 cleavage; assay type: biochemical, human
Experimental: Values are means of duplicates.
FIG. 20B depicts streptavidin-peroxidase stained SDS-gel blots (reducing conditions) showing Bt-gp120 (0.1 μM) incubated in diluent (lane 1) and monoclonal IgA (80 μg/ml, from multiple myeloma subject 2582) in the absence (lane 2) or presence of Glu-Ala-Arg-AMC (lane 3; 0.2 mM). […] FIG. 20C is EP-hapten 3 which is the non-biotinylated version of EP-hapten 1.
In some experiments, the cleavage rate was expressed as the intensity of the 55 kD product band (in AVU, corrected for background intensity observed in reaction mixtures of gp120 incubated in diluent instead of Ab). For cleavage site determination, gp120 was incubated with IgA (pooled from subject codes 2288-2291), the IgA was removed by binding to an anti-human IgA column as described above, and the unbound fraction was lyophilized and redissolved in SDS-electrophoresis buffer containing 2-mercaptoethanol. The gp120 fragments in PVDF blots of SDS-gels were stained with Coomassie blue and subjected to N-terminal sequencing as described previously (33).

[2] = tested on: HIV neutralizing activity of CIVIG / IgA; test: Inhibition of immunoglobulin-mediated HIV neutralization by electrophilic peptide; assay type: cell-based, HIV-1; settings: 100 μM; for Effect on HIV neutralizing activity of serum IgA: 0.5 h preincubation, IgA 2 μg/ml
Experimental: CIVIGm (FIG. 10A) and CIVGa (FIG. 10B) were incubated for 30 min with gp120 peptide-CRA (100 μM) or diluent, and the residual neutralization activity was determined as in FIG. 9 (CIVIGm, 10 μg/mL; CIVGa, 2 μg/mL).
HIV-1 strain, 97ZA009; host cells, phytohemagglutinin-stimulated PBMCs. Abs were incubated with the virus for 24 h. Values are expressed as percent reduction of p24 concentrations in test cultures compared to cultures that received diluent instead of the Abs (means±s.d. of 4 replicates). […] IgA purified from human serum (2 μg/ml) was preincubated (0.5 h) with EP-421-433 (100 μM), control EP-VIP or diluent, and the residual HIV neutralizing activity measured as in panel A. Data are expressed relative p24 levels observed in the absence of antibody. […] HIV was preincubated with the salivary or serum IgA for 1 h and the neutralizing activity measured as in FIG. 24A.
Covalently reactive analogs (CRAs) of polypeptides have been developed as probes for antibodies. CRAs contain an electrophilic phosphonate analog capable of irreversible binding to nucleophiles present in antibody combining sites. The covalent reaction occurs in coordination with noncovalent antigen-antibody binding, ensuring specificity, and permitting the use of peptidyl CRAs for irreversible and specific binding to the antibodies. One such peptidyl CRA reported is an analog of gp120 residues 421-433 containing the phosphonate at its C terminus (gp120 peptide CRA). This region of gp120 is a component of the superantigenic site of this protein. Neutralization of HIV-1 by CIVIGa and CIVIGm was inhibited by the gp120 peptide CRA, confirming that recognition of the gp120 superantigenic site is required for the neutralizing activity. FIGS. 10A-10B illustrate these findings. CIVIGm and CIVGa were preincubated with the gp120 peptide-CRA or diluent, and the residual neutralization activity was determined as in FIG. 9. An irrelevant peptide CRA, VIP-CRA was employed as the control reagent to rule out nonspecific effects. […]

[3] = tested on: IgA (serum and salivary); test: Phosphonate binding: irreversible adducts with IgA, SDS-electrophoresis, streptavidin-peroxidase; settings: reducing SDS-gels after heating (100° C., 5 min)
[4] = tested on: IgA; assay type: biochemical, human
[5] = tested on: IgM Yvo; test: Irreversible binding of biotinylated phosphonate by IgM Yvo; settings: probe 500 μM; IgM Yvo 0.1 μM
[6] = tested on: Monoclonal IgA (ID 2582); test: Stoichiometry / active site titration of monoclonal IgA with phosphonate; assay type: biochemical, human; settings: for x-intercept of residual activity (%) versus [inhibitor]/[IgA] plot: monoclonal IgA 2582 preincubated 18 h with 2.5-20 μM inhibitor, Glu-Ala-Arg-AMC 0.4 mM
[7] = 10 μM, bleed 2, conditions as FIG. 22B
[8] = increasing concentrations 10-100 μM

## EP-VIP: VIP containing the amidinophosphonate at Lys20 side chain; control electrophilic peptide
[1]; equivalent concentration (10 μM) of control probe
  % inhibition of gp120 cleavage by IgAs of SP subjects 2097 and 2098: < 15%
[2]
  Effect on HIV neutralizing activity of serum IgA: minimally influenced

## EP-421-433: gp120 residues 421-431 with the amidinophosphonate mimetic of residues 432-433 at the C-terminus (KQIINMWQEVG; not fully specified (C-terminus); printed as Lys-Gln-Ile-Ile-Asn-Met-Trp-Gln-Glu-Val-Gly)
[1]; [7]
  % inhibition of gp120 cleavage by IgA of SP subject 2097: 89±6%
  % inhibition of gp120 cleavage by IgA of SP subject 2098: 94±12%
[1]; [8]
  Inhibition of cleavage of Bt-gp120 by salivary IgA: 21-85%
  Inhibition of cleavage of Bt-gp120 by serum IgA: 41-91%
[2]; 30 min preincubation, CIVIGm 10 μg/mL, CIVGa 2 μg/mL
  Inhibition of HIV-1 neutralization by CIVIGa and CIVIGm: inhibited
[2]
  Effect on HIV neutralizing activity of serum IgA: inhibited the neutralizing activity
[3]
  Formation of irreversible adducts with IgA: superior irreversible binding

## N=C(N)c1ccc(C(NC(=O)CCCCCNC(=O)CCCC[C@@H]2SC[C@@H]3NC(=O)N[C@@H]32)P(=O)(Oc2ccccc2)Oc2ccccc2)cc1 (stereo partly shown) [1a, diphenyl N-(6-biotinamidohexanoyl)amino(4-amidinophenyl)methanephosphonate]
[4]
  IC50: 37 ± 1 µM
  Inhibition of catalytic activity of serum IgA: inhibited the catalytic activity
[5]
  Irreversible reaction with IgM Yvo: reacts irreversibly
[3]
  Formation of irreversible adducts with IgA: dominant ˜60 kD 1a-adduct of the heavy chain
[3]; listed as EP-hapten 1
  Formation of irreversible adducts with IgA: formed adducts

## N=C(N)c1ccc(C(NC(=O)OCc2ccccc2)P(=O)(Oc2ccccc2)Oc2ccccc2)cc1 (stereo not shown) [1b, diphenyl N-(benzyloxycarbonyl)amino(4-amidinophenyl)methanephosphonate]
[6]
  x-intercept of residual activity (%) versus [inhibitor]/[IgA] plot: 2.5
[6]; listed as EP-hapten 3
  x-intercept of residual activity (%) versus [inhibitor]/[IgA] plot: 2.4
[6]; monoclonal IgA, Glu-Ala-Arg-AMC substrate
  Inhibitor needed for complete inhibition of 1 mole IgA: 2.4 mol

## N=C(N)c1ccc(C(NC(=O)CCCCCNC(=O)CCCC[C@@H]2SC[C@@H]3NC(=O)N[C@@H]32)P(=O)(O)O)cc1 (stereo partly shown) [hapten 2, N-(6-biotinamidohexanoyl)amino(4-amidinophenyl)methanephosphonic acid]
[5]
  Irreversible reaction with IgM Yvo: does not react appreciably
[3]
  Formation of irreversible adducts with IgA: did not inhibit IgA-catalyzed gp120 cleavage or form adducts
